Legend:
[1] = 101.33 kPa, Resistive pulse heating
[2] = Molar enthalpy of transition or fusion; conditions: Crystal; Resistive pulse heating

[V] [vanadium]
thermal conductivity [W/m/K], [1]
Conditions | Crystal | Liquid
2199 K | 41.35 | 39.08
2250 K | – | 39.8
2300 K | – | 40.49
2350 K | – | 41.17
2400 K | – | 41.82
2450 K | – | 42.46
2500 K | – | 43.08
2550 K | – | 43.68
2600 K | – | 44.26
2650 K | – | 44.83
2700 K | – | 45.37
2750 K | – | 45.91
2800 K | – | 46.42
2850 K | – | 46.91
2900 K | – | 47.39

Conditions | Molar enthalpy of transition or fusion [kcal/mol]
[2] | 4.94
